Reference: PubChem BioAssay AID1963437 (Molecular Pharmacology Branch, DTP, NCI, 2024)

System: OVCAR-8 complex spheroid, growth inhibition
Assay: Anticancer human tumor OVCAR-8 cell line growth inhibition [Asc];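 note: spheroids exposed to agents for 7 days before readout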;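 for viability, T/C: percent viability relative to DMSO vehicle wells taken as 100%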
Conditions: for IC50: curve of first compound; for viability, T/C: stronger effect = lower value
Protocol: Multicellular complex tumor spheroid response to apoptosis pathway targeting inhibitors Alrizomadlin, Pelcitoclax, and Dasminapant in combination with a variety of drugs and investigational agents in selected tumor cell lines
The MDM2 inhibitor alrizomadlin, the Bcl-2/Bcl-xL inhibitor pelcitoclax, and the IAPs inhibitor dasminapant were evaluated both individually and in combination with standard of care and investigational anticancer small molecules within a complex spheroid model of solid tumors. . Complex spheroids include a stromal component modeled by human endothelial cells (HUVEC) and fibroblasts modeled by human mesenchymal stem cells (MSCs). The concentration ranges selected for each drug and investigational agent were based upon clinically achievable concentrations if the clinical Cmax of the agent was known.
Compounds. The drugs and investigational agents: alrizomadlin (APG-115; NSC831270), pelcitoclax (APG-1252; NSC835773), dasminapant (APG-1387;NSC834197), TAK-243 (NSC785004), copanlisib (NSC809693), olaparib (NSC753686), talazoparib (NSC767125), cobimetinib (NSC 768068), eltanexor (KPT-8602, NSC 794443), abemaciclib (NSC 768073), sotorasib (NSC818433), adagrasib (NSC 831453), MRTX-1133 (NSC 836407), Iadademestat (ORY1001, NSC 806812), and RMC-4630 (NSC839698), were obtained from the NCI Developmental Therapeutics Program Chemical Repository. The FDA-approved anticancer drug set is available from the Developmental Therapeutics Program at https://dtp.cancer.gov/organization/dscb/obtaining/available plates.htm. […] The stock solutions were prepared in dimethyl sulfoxide (DMSO, Sigma-Aldrich, St. Louis, MO, cat. D2650) at 800-fold the tested concentration and stored at -70 degrees C prior to their use. All drugs and investigational agents were tested over a range starting from a high concentration at or near the clinical Cmax and decreasing in half-log increments. If the clinical Cmax for an agent had not been determined, the highest concentration tested was 10 microM.
The patient-derived cancer (PDC) cell lines include five colon adenocarcinomas: 186277-243-T-J2-PDC, 616215-338-R-J1-PDC, 439559-082-T-J2-PDC, 463943-066-T-J2-PDC, and 519858-162-T-J1-PDC; three pancreatic carcinomas: 323965-272-R-J2-PDC, 521955-158-R6-J3-PDC, and 521955-158-R2-J5-PDC; two uterine sarcomas: 327498-152-R-J2-PDC and 993429-296-R-J1-PDC; two rhabdomyosarcomas: 755483-174-R-J1-PDC and 772245-204-R-J1-PDC; two soft tissue sarcomas: 126254-015-R-J1-PDC and 494315-158-R-J1-PDC; two malignant fibrous histiocytomas: 317291-083-R-J1-PDC and 596521-263-R-J1-PDC; two breast carcinomas: 171881-019-R-J1-PDC and 885512-296-R-J2-PDC; and one ovarian carcinoma: 6556581-035-R-J-PDC were obtained from the NCI PDMR, (https://pdmr.cancer.gov). The established cell lines HSSY-2 synovial sarcoma (RRID:CVCL 8719), SYO-1 synovial sarcoma (RRID:CVCL_7146), MPNST malignant peripheral neural sheath tumor were obtained from the Sloan Kettering Institute. The following established cell lines were purchased from the American Type Culture Collection (ATCC, Manassas, VA), Sor the received from the NCI repository:, PANC-1 pancreatic carcinoma (CRL-1469, RRID:CVCL_0480), OVCAR-5 ovarian carcinoma (RRID:CVCL_1628), OVCAR-8 ovarian carcinoma (RRID:CVCL_1629), , MCF-7 breast carcinoma (CRL-12584, RRID:CVCL_0031), MDA-MB-231 breast carcinoma (CRL-12532, RRID:CVCL_0062), NCI-H1876 small cell lung carcinoma (CRL-5902, RRID:CVCL_1503), NCI-H510A small cell lung carcinoma (HTB-184, RRID:CVCL_1565), NCI-H1417 (CRL-5869, RRID:CVCL_1469), and NCI-H196 small cell lung carcinoma (CRL-5823, RRID:CVCL_1509). Dr. Peter Houghton (Greehey Children's Cancer Research Institute, University of Texas Health Science Center, San Antonio, TX) provided Rh-18 rhabdomyosarcoma (RRID:CVCL_1659). Pooled donor human umbilical vein endothelial cells (HUVEC, Lonza, cat. CC-2519) and human mesenchymal stem cells (hMSC, Lonza, cat. PT-2501) were purchased from Lonza (Walkersville, MD).
Cell Culture. […]

[1] = second compound 0.00949 µM, first compound 0.0316 µM
[2] = second compound 0.00949 µM, first compound 0.1 µM
[3] = second compound 0.03 µM, first compound 0.0316 µM
[4] = second compound 0.03 µM, first compound 0.1 µM
[5] = second compound 0.0949 µM, first compound 0.0316 µM
[6] = second compound 0.0949 µM, first compound 0.1 µM
[7] = second compound 0.3 µM, first compound 0.0316 µM
[8] = second compound 0.3 µM, first compound 0.1 µM
[9] = second compound 0.949 µM, first compound 0.0316 µM
[10] = second compound 0.949 µM, first compound 0.1 µM
[11] = second compound 3 µM, first compound 0.0316 µM
[12] = second compound 3 µM, first compound 0.1 µM

Q: For `Cn1ncnc1[C@H]1c2n[nH]c(=O)c3cc(F)cc(c23)N[C@@H]1c1ccc(F)cc1` + CCN1C(C(=O)NC23CCC(C(=O)O)(CC2)CC3)C(c2cccc(Cl)c2F)C2(C(=O)Nc3cc(Cl)ccc32)C12CCCCC2, which IC50 (second compound 0.00949 µM) is on record?
A: The IC50 was greater than 0.1 µM.

Q: And the IC50 (second compound 0.03 µM)?
A: The IC50 was greater than 0.1 µM.

Q: And the IC50 (second compound 0.0949 µM)?
A: Its IC50 is greater than 0.1 µM.

Q: And the IC50 (second compound 0.3 µM)?
A: Its IC50 is greater than 0.1 µM.

Q: And the IC50 (second compound 0.949 µM)?
A: The IC50 was greater than 0.1 µM.

Q: What about the IC50 (second compound 3 µM) of the same molecule?
A: The IC50 was greater than 0.1 µM.

Q: And the viability, T/C (second compound 0.00949 µM, first compound 0.000316 µM)?
A: Its viability, T/C is 90.7%.

Q: And the viability, T/C (second compound 0.00949 µM, first compound 0.001 µM)?
A: The viability, T/C was 82.6%.

Q: And the viability, T/C (second compound 0.00949 µM, first compound 0.00316 µM)?
A: The viability, T/C was 105%.

Q: And the viability, T/C (second compound 0.00949 µM, first compound 0.01 µM)?
A: Its viability, T/C is 111%.

Q: What about the viability, T/C [1] of the same molecule?
A: The viability, T/C was 105%.

Q: And the viability, T/C [2]?
A: The viability, T/C was 128%.

Q: What about the viability, T/C (second compound 0.03 µM, first compound 0.000316 µM) of the same molecule?
A: The viability, T/C was 96%.

Q: And the viability, T/C (second compound 0.03 µM, first compound 0.001 µM)?
A: The viability, T/C was 94.3%.

Q: And the viability, T/C (second compound 0.03 µM, first compound 0.00316 µM)?
A: Its viability, T/C is 104%.

Q: And the viability, T/C (second compound 0.03 µM, first compound 0.01 µM)?
A: The viability, T/C was 109%.

Q: And the viability, T/C [3]?
A: Its viability, T/C is 107%.

Q: What about the viability, T/C [4] of the same molecule?
A: The viability, T/C was 126%.

Q: What about the viability, T/C (second compound 0.0949 µM, first compound 0.000316 µM) of the same molecule?
A: The viability, T/C was 89.8%.

Q: And the viability, T/C (second compound 0.0949 µM, first compound 0.001 µM)?
A: The viability, T/C was 93.7%.

Q: And the viability, T/C (second compound 0.0949 µM, first compound 0.00316 µM)?
A: Its viability, T/C is 110%.

Q: And the viability, T/C (second compound 0.0949 µM, first compound 0.01 µM)?
A: Its viability, T/C is 95.5%.

Q: And the viability, T/C [5]?
A: Its viability, T/C is 127%.

Q: What about the viability, T/C [6] of the same molecule?
A: The viability, T/C was 101%.

Q: What about the viability, T/C (second compound 0.3 µM, first compound 0.000316 µM) of the same molecule?
A: Its viability, T/C is 87.8%.

Q: And the viability, T/C (second compound 0.3 µM, first compound 0.001 µM)?
A: The viability, T/C was 110%.

Q: And the viability, T/C (second compound 0.3 µM, first compound 0.00316 µM)?
A: The viability, T/C was 97.7%.

Q: What about the viability, T/C (second compound 0.3 µM, first compound 0.01 µM) of the same molecule?
A: Its viability, T/C is 97%.

Q: What about the viability, T/C [7] of the same molecule?
A: Its viability, T/C is 106%.

Q: And the viability, T/C [8]?
A: Its viability, T/C is 123%.

Q: And the viability, T/C (second compound 0.949 µM, first compound 0.000316 µM)?
A: The viability, T/C was 111%.

Q: And the viability, T/C (second compound 0.949 µM, first compound 0.001 µM)?
A: Its viability, T/C is 92%.

Q: And the viability, T/C (second compound 0.949 µM, first compound 0.00316 µM)?
A: Its viability, T/C is 95.3%.

Q: And the viability, T/C (second compound 0.949 µM, first compound 0.01 µM)?
A: Its viability, T/C is 97.1%.

Q: And the viability, T/C [9]?
A: The viability, T/C was 109%.

Q: And the viability, T/C [10]?
A: The viability, T/C was 126%.

Q: And the viability, T/C (second compound 3 µM, first compound 0.000316 µM)?
A: Its viability, T/C is 98.6%.

Q: And the viability, T/C (second compound 3 µM, first compound 0.001 µM)?
A: Its viability, T/C is 94.3%.

Q: And the viability, T/C (second compound 3 µM, first compound 0.00316 µM)?
A: Its viability, T/C is 104%.

Q: And the viability, T/C (second compound 3 µM, first compound 0.01 µM)?
A: Its viability, T/C is 117%.

Q: What about the viability, T/C [11] of the same molecule?
A: The viability, T/C was 115%.

Q: What about the viability, T/C [12] of the same molecule?
A: Its viability, T/C is 139%.

Q: What does the source list for `O=C(c1cc(Cc2n[nH]c(=O)c3ccccc23)ccc1F)N1CCN(C(=O)C2CC2)CC1` + CCN1C(C(=O)NC23CCC(C(=O)O)(CC2)CC3)C(c2cccc(Cl)c2F)C2(C(=O)Nc3cc(Cl)ccc32)C12CCCCC2?
A: IC50 (second compound 0.00949 µM): > 10 µM; IC50 (second compound 0.03 µM): > 10 µM; IC50 (second compound 0.0949 µM): > 10 µM; IC50 (second compound 0.3 µM): > 10 µM; IC50 (second compound 0.949 µM): > 10 µM; IC50 (second compound 3 µM): > 10 µM; viability, T/C [1]: 99.8%; viability, T/C [2]: 86%; viability, T/C (second compound 0.00949 µM, first compound 0.316 µM): 85.7%; viability, T/C (second compound 0.00949 µM, first compound 1 µM): 98.2%; viability, T/C (second compound 0.00949 µM, first compound 3.16 µM): 97.8%; viability, T/C (second compound 0.00949 µM, first compound 10 µM): 102%; viability, T/C [3]: 93.2%; viability, T/C [4]: 94%; viability, T/C (second compound 0.03 µM, first compound 0.316 µM): 87.5%; viability, T/C (second compound 0.03 µM, first compound 1 µM): 100%; viability, T/C (second compound 0.03 µM, first compound 3.16 µM): 119%; viability, T/C (second compound 0.03 µM, first compound 10 µM): 102%; viability, T/C [5]: 101%; viability, T/C [6]: 91.7%; viability, T/C (second compound 0.0949 µM, first compound 0.316 µM): 94.2%; viability, T/C (second compound 0.0949 µM, first compound 1 µM): 87.6%; viability, T/C (second compound 0.0949 µM, first compound 3.16 µM): 120%; viability, T/C (second compound 0.0949 µM, first compound 10 µM): 115%; viability, T/C [7]: 85.2%; viability, T/C [8]: 85.9%; viability, T/C (second compound 0.3 µM, first compound 0.316 µM): 93.3%; viability, T/C (second compound 0.3 µM, first compound 1 µM): 91.4%; viability, T/C (second compound 0.3 µM, first compound 3.16 µM): 103%; viability, T/C (second compound 0.3 µM, first compound 10 µM): 120%; viability, T/C [9]: 99.6%; viability, T/C [10]: 108%; viability, T/C (second compound 0.949 µM, first compound 0.316 µM): 105%; viability, T/C (second compound 0.949 µM, first compound 1 µM): 95.5%; viability, T/C (second compound 0.949 µM, first compound 3.16 µM): 96.3%; viability, T/C (second compound 0.949 µM, first compound 10 µM): 114%; viability, T/C [11]: 115%; viability, T/C [12]: 104%; viability, T/C (second compound 3 µM, first compound 0.316 µM): 114%; viability, T/C (second compound 3 µM, first compound 1 µM): 103%; viability, T/C (second compound 3 µM, first compound 3.16 µM): 125%; viability, T/C (second compound 3 µM, first compound 10 µM): 107%
